Measurements published in patent publication US20070077311A1, “Fumigant/sterilant” (priority 2003, published 2007).

What was measured:
[1] = Flammability limit tests of cyanogen/CO2 mixtures in air; format: physicochemical
Excerpt: The apparatus allows continuous metering and mixing of known proportions of cyanogen, carbon dioxide and air. This permitted a number of ignition tests to be made in a relatively short period.
The apparatus comprises sources of compressed air 1, carbon dioxide 2 and the active chemical cyanogen 3. […] The resultant mixture flows through tube 7 where it is diverted to an oxygen analyser 8 to determine its content, and an ignition tube 9 with ignition source 10 for flammability testing.
Similarly, for the tests involving the addition of carbon dioxide, the proportions of air and CO2 were set using the previously arrived calibration material and at least two minutes were allowed to elapse between adjustment of the CO2/air proportions and ignition tests.
Ignition tests involved switching a high voltage across an approximately 5 mm gap 10 within the flow ignition tube 9. […]
Turning to FIG. 2, it is now possible to determine what proportion of cyanogen in carbon dioxide will remain inert in all proportions with air. Line A shown in FIG. 2 has the maximum slope that can be achieved whilst still remaining wholly below the experimentally determined lower explosive limits and passing through the origin.
For reasons of safety, the Applicant has determined a preferred content of around 20% v/v as this gives an additional margin of safety.

rat = conditions: 1 hour inhalation; cited from earlier work
[2] = cited from earlier work

For N#CC#N [cyanogen], the “maximum proportion of cyanogen in carbon dioxide which is inert in all proportions with air” value ([1]; from slope of Line A in FIG. 2, ignition source 2) is listed as “approximately 26%”, the “maximum of cyanogen in carbon dioxide gas inert in all proportions of air” value ([1]; subsequent testing) is listed as “around 26 % v/v” and the LC50 (rat) is listed as 350 ppm. The “Flammability limits in air” value [2] was 6-32 % v/v, the “known LEL of cyanogen in air” value ([2]; literature value) was 6% and the “known UEL of cyanogen in air” value ([2]; literature value) was 32 % v/v.
